What all share (assay): NCI-60 cell line screen, 48 h
Test [1] relates to ACHN renal.
The test system of test [2] is HCT-116 colon.
Test [3] concerns MALME-3M melanoma.
The test system of test [4] is NCI-H226 lung.
The subject of test [5] is NCI-H23 lung.
The subject of test [6] is OVCAR-5 ovarian.
Test [7] has as its system SF-295 CNS.
Test [8] deals with SK-MEL-28 melanoma.
In test [9] the test system is SR leukemia.
Test [10] relates to SW-620 colon.

“And” between values parts separate entries of the source, which are not always exact repeats. Equal entries are not always repeated.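 Values below derive from 48-hour exposures of cells grown in 96-well plates, with endpoints linearly interpolated between the two concentrations bracketing the appropriate inhibition level. GI50 marks 50% less growth. TGI denotes the concentration required for complete inhibition of growth.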

These results are taken from PubChem BioAssay (NCI).

As to `COc1ccc2c(c1)C(=O)c1c-2n(CCCN=[N+]=[N-])c(=O)c2ccccc12`, the GI50 in test [1] is 28.7 µM; in [2], 26.7 µM; in test [3], above 100 µM; in test [4], above 100 µM; in [5], 50.4 µM; in [6], above 100 µM. Moreover, the GI50 is 18.5 µM in test [7], above 100 µM in [8], 5.7 µM in test [9] and 25.5 µM in [10]. For the same compound, the TGI in [1], in test [2], in test [3], in test [4], in test [5] and in [6] was above 100 µM throughout. Also, the TGI in test [7], in test [8], in test [9] and in test [10] was above 100 µM throughout.
As for `O=C1NC(=NCc2cccs2)SC1Cc1ccc2ncccc2c1` (stereo not given), the GI50 in test [1] was 24.7 µM; in [2] it was 10.7 µM; in test [3] it was 24.7 µM; in [4], above 25 µM; in test [5] it was above 25 µM; in test [6] it was above 25 µM. In addition, the GI50 was 11.6 µM in test [7], above 19.9 µM in test [8], 8.86 µM in [9] and 9.16 µM in test [10]. Also, the TGI in [1], in [2], in [3], in [4], in [5] and in test [6] was above 25 µM throughout. For the same compound, the TGI in test [7], in [8], in test [9] and in test [10] was above 25 µM throughout.
`O=C1NC(=NCC(CO)c2ccccc2)S/C1=C\c1ccc2ncccc2c1` (stereo not given): the GI50 in [1] is 24.4 µM; in test [2], 8.51 µM; in test [3] it was above 25 µM; in test [4], above 25 µM; in test [5], 12.1 µM; in [6] it was above 25 µM. In addition, the GI50 in [7] is above 25 µM; in test [8], above 25 µM; in test [9], 4.49 µM; in [10] it was 7.74 µM. Besides, the TGI in test [1], in test [2], in test [3], in test [4], in [5] and in test [6] was above 25 µM each time. Also, the TGI is above 25 µM in test [7], above 25 µM in test [8], above 22.7 µM in test [9] and above 25 µM in test [10].
Regarding `C=CCN1C(=O)/C(=c2\sc3n(c2=O)C2C(NN=3)N(CC)C(=O)N2CC)c2ccccc21` (stereo not given), the GI50 in test [1] was 0.834 µM; in test [2], 0.403 µM; in test [3], 1.28 µM; in test [4], 2.19 µM; in test [5], 0.88 µM; in [6] it was 1.55 µM. Besides, the GI50 is 0.455 µM in test [7], 5.36 µM in [8], 0.38 µM in [9] and 0.423 µM in test [10]. For the same compound, the TGI in test [1] was above 100 µM; in [2], above 100 µM; in test [3], above 100 µM; in test [4], above 100 µM; in test [5], above 50.7 µM; in test [6] it was above 100 µM. Moreover, the TGI is above 33.7 µM in test [7], above 100 µM in test [8], above 100 µM in [9] and above 100 µM in test [10].
With `CCOc1ccc(Cc2nccc3cc(OCC)c(OCC)cc23)cc1OCC`, the GI50 in [1] was 7.54 µM; in [2], 1.52 µM; in [3] it was 8.76 µM; in test [4], 6 µM; in test [5], 1.93 µM; in test [6], 4.58 µM. Also, the GI50 in test [7] is 0.688 µM; in test [8], 14.8 µM; in test [9], 12.6 µM; in test [10], 3.68 µM. Further, the TGI worked out at 45.1 µM in test [1]; 13.4 µM in [2]; 26 µM in [3]; 23.8 µM in test [4]; 21.6 µM in test [5]; 22 µM in [6]. For the same compound, the TGI in [7] was determined as 15.8 µM; in [8] it was 28.9 µM; in test [9], 56.2 µM; in [10], 24.1 µM.
Regarding `Oc1nc(NCCc2ccccc2)sc1/C=C1\C=Nc2ncccc21`, the GI50 in [1] is 2.45 µM and 2.7 µM; in test [2], 1.03 µM and 1.23 µM; in [3], 3.28 µM; in test [4], 2.99 µM and 3.27 µM; in test [5], 1.62 µM and 2.4 µM; in test [6], 2.94 µM and 2.93 µM. The GI50 in test [7] is 3.32 µM and 3.14 µM; in test [8] it was 2.83 µM and 2.52 µM; in test [9] it was 0.397 µM and 0.554 µM; in test [10], 1.92 µM and 2.37 µM. Besides, the TGI is 19.1 µM and 10.8 µM in [1]; 11.1 µM and 6.5 µM in test [2]; 8.93 µM in [3]; 14.3 µM and 16.1 µM in test [4]; 5.72 µM and 8.12 µM in test [5]; 27.8 µM and 16.9 µM in test [6]. For the same compound, the TGI in test [7] is 13.2 µM and 23.6 µM; in test [8] it was 13.6 µM and 7.58 µM; in [9], 17.7 µM and 7.79 µM; in test [10], 8.09 µM and 11.9 µM.
Regarding `CSC1=Nc2c(c(C)c(-c3ccccc3)n2COC(CO)CO)C2=NC(=O)C(C)N12` (stereo not given), the GI50 in test [1], in test [2], in test [3], in [4], in test [5] and in [6] was above 100 µM throughout. Further, the GI50 in test [7] is above 100 µM; in test [8] it was above 100 µM; in test [9], 4.07 µM; in test [10], above 100 µM. For the same compound, the TGI in [1], in test [2], in [3], in test [4], in test [5] and in [6] was above 100 µM in each case. Besides, the TGI in test [7], in [8], in test [9] and in [10] was above 100 µM in each case.
`O=C1C2=C(C(=O)c3c(O)ccc(O)c31)N(c1ccc(N3CCOCC3)nc1)Cc1ccccc1O2`: the GI50 in test [1] was 0.0534 µM; in test [2] it was 0.0966 µM; in test [3], 0.134 µM; in test [4] it was 1.91 µM; in test [5], 0.421 µM; in test [6], 0.777 µM. The GI50 in [7] was 2.01 µM; in test [8] it was 0.275 µM; in test [9] it was 0.108 µM; in [10], 0.152 µM. In addition, the TGI in test [1] was determined as 0.237 µM; in test [2] it was 0.332 µM; in test [3] it was 0.418 µM; in test [4] it was 7.81 µM; in test [5], 1.88 µM; in test [6], 2.3 µM. The TGI is 4.63 µM in [7], 0.785 µM in test [8], above 100 µM in test [9] and 0.5 µM in test [10].
Turning to `CCCCCCN(CCCCCC)CCCNc1nccc2ccccc12`, the GI50 in test [1] was 1.9 µM; in test [2], 0.832 µM; in [3] it was 1.94 µM; in [4], 1.61 µM; in test [5], 1.8 µM; in test [6], 1.63 µM. The GI50 in test [7] is 0.951 µM; in [8] it was 1.64 µM; in test [9], 1.65 µM; in test [10] it was 1.29 µM. Further, the TGI was 4.47 µM in test [1]; 2.2 µM in test [2]; 3.91 µM in test [3]; 3.5 µM in test [4]; 3.83 µM in test [5]; 4.3 µM in [6]. Also, the TGI in [7] is 2.24 µM; in test [8] it was 3.17 µM; in test [9] it was 4.6 µM; in test [10] it was 2.96 µM.
Regarding `CCOP(=O)(CCP(=O)(OCC)OCC)OCC.C[CH2][Sn]([Cl])([Cl])[CH2]C`, the GI50 in [1] is 36.7 µM; in test [2], above 67.3 µM; in test [3], 15.3 µM; in test [4] it was 20.3 µM; in test [5], 19.9 µM; in [6] it was 72 µM. The GI50 in test [7] is above 81.8 µM; in [8], 35.6 µM; in test [9] it was 38.2 µM; in test [10], 21.2 µM. Further, the TGI was 57.1 µM in [1]; above 100 µM in test [2]; 30.6 µM in test [3]; 42.7 µM in test [4]; 49 µM in test [5]; above 100 µM in test [6]. The TGI in [7] was above 100 µM; in [8], above 61.9 µM; in test [9], above 100 µM; in test [10], 42.1 µM.
With `O=C(c1cc2ccccc2[nH]1)C(O)(c1cc2ccccc2[nH]1)c1cc2ccccc2[nH]1`, the TGI in test [1], in test [2], in test [3], in [4], in test [5] and in test [6] was above 246 µM each time. Besides, the TGI in [7], in test [8], in test [9] and in [10] was above 246 µM in each case.
For `C/C=C/C=N/N(c1nnc(-c2ccccc2)c(-c2ccccc2)n1)S(=O)(=O)c1ccc(C)cc1`, the TGI is 24.3 µM in test [1]; 28 µM in test [2]; 22.8 µM in [3]; 31.2 µM in test [4]; 29.7 µM in [5]; 33.5 µM in [6]. Besides, the TGI in test [7] is 22.9 µM; in test [8] it was 28.7 µM; in test [9] it was 21.1 µM; in [10], 14.9 µM.
